Values quoted from earlier work in patent US20230102999A1, “DEUTERATED NICLOSAMIDE” (First Wave Bio, Inc., priority 2020, published 2023).
Where a name gives a salt, the structure may show the parent alone.

Assays:
[1] = at 20° C.

water solubility ([1]; water) [µg/mL]	solubility in acetone (acetone)	solubility in ether, ethanol and chloroform (ether, ethanol and chloroform)	dissolves in distilled water ([1]; distilled water) [mg/L]	Compound
5 to 8	soluble	sparingly soluble	–	O=C(Nc1ccc([N+](=O)[O-])cc1Cl)c1cc(Cl)ccc1O [Niclosamide, 5-chloro-N-(2-chloro-4-nitrophenyl)-2-hydroxybenzamide]
–	–	–	180 to 280	O=C(Nc1ccc([N+](=O)[O-])cc1Cl)c1cc(Cl)ccc1O [ethanolamine salt, 5-chloro-salicyl-(2-chloro-4-nitro) anilide 2-aminoethanol salt]
